Results on 15 molecules are retold here after patent US4038410A, “Nitroimidazole derivatives and process for the preparation thereof” (Schering Aktiengesellschaft, priority 1974, dated 1977).

Assay [1] relates to Trichomonas vaginalis. The assay is described as follows: Minimum inhibitory concentration against Trichomonas vaginalis. The class given is cell-based.
The test system of the next assay is Entamoeba histolytica. The assay is described as follows: Minimum inhibitory concentration against Entamoeba histolytica. Type of assay: cell-based. Particulars: Table II; for MIC: read-out: Minimum Inhibitory Concentration (MIC) in μg./ml. Against Entamoeba hist.
Assay [2] has as its system Trichomonas vaginalis. As to conditions: literature: C. Cosar, Arzneimittelforschung 16, 23 (1966); French Pat. No. 1,212,028; cited from earlier work.
Where [3] appears, read: Table II, read-out: Minimum Inhibitory Concentration (MIC) in μg./ml. Against Trich vag.
[4] abbreviates: Table I, read-out: Minimum Inhibitory Concentration (MIC) in μg./ml. Against Trich. vag.

In brackets after ≈: the same amount, converted by molar mass. Where two headings read alike, the source gives them in different places.

Take `Cc1c(-c2ncc([N+](=O)[O-])n2C)cnn1-c1ccc(Cl)cc1` [1-(4-Chlorophenyl)-5-methyl-4-(1-methyl-5-nitro-2-imidazolyl)-pyrazole]: the MIC in the assay on Trichomonas vaginalis [1] (setting [3]) stood at 0.2 µg/mL (≈ 0.629 µM). Turning to `Cn1nccc1-c1ncc([N+](=O)[O-])n1C` [1-Methyl-5-(1-methyl-5-nitro-2-imidazolyl)-pyrazole], in the assay on Trichomonas vaginalis [1] (setting [4]), the MIC came to 0.05 µg/mL (≈ 0.241 µM).

With `COc1ccc(-n2ncc(-c3ncc([N+](=O)[O-])n3C)c2C)cc1` [1-p-Anisyl-5-methyl-4-(1-methyl-5-nitro-2-imidazolyl)-pyrazole], the MIC in the assay on Trichomonas vaginalis [1] (setting [3]) is 0.2 µg/mL (≈ 0.638 µM).

In the case of `Cc1nc(-c2ccco2)ncc1-c1ncc([N+](=O)[O-])n1C` [2-(2-Furyl)-4-methyl-5-(1-methyl-5-nitro-2-imidazolyl)-pyrimidine], the MIC in the assay with Trichomonas vaginalis [1] (setting [3]) worked out at 0.4 µg/mL (≈ 1.4 µM). Turning to `Cc1c(-c2ncc([N+](=O)[O-])n2C)cnn1CCO` [2-[5-Methyl-4-(1-methyl-5-nitro-2-imidazolyl)-pyrazolyl]-ethanol], the MIC with Trichomonas vaginalis [1] (setting [3]) was found to be 0.2 µg/mL (≈ 0.796 µM); with Entamoeba histolytica it was 50 µg/mL (≈ 199 µM). For `Cc1[nH]ncc1-c1ncc([N+](=O)[O-])n1C` [3(5)-Methyl-4-(1-methyl-5-nitro-2-imidazolyl)-pyrazole], the results for the MIC with Trichomonas vaginalis [1] (setting [3]) and in the assay with Entamoeba histolytica were 0.2 µg/mL (≈ 0.965 µM) and 12.5 µg/mL (≈ 60.3 µM), respectively. For the molecule `Cn1c([N+](=O)[O-])cnc1-c1cc[nH]n1` [3-(1-Methyl-5-nitro-2-imidazolyl)-pyrazole], the MIC in the assay with Trichomonas vaginalis [1] (setting [4]) was found to be 0.1 µg/mL (≈ 0.518 µM). Still for that read-out and setting: to `CN(C)C=CC(=O)c1ncc([N+](=O)[O-])n1C` [3-Dimethylamino-1-(1-methyl-5-nitro-2-imidazolyl)-2-propenone] belongs 0.1 µg/mL (≈ 0.446 µM). As for `Cc1nn([N+](=O)[O-])cc1-c1ncc([N+](=O)[O-])n1C` [3-Methyl-4-(1-methyl-5-nitro-2-imidazolyl)-1-nitropyrazole], the MIC in the assay on Trichomonas vaginalis [1] (setting [3]) was determined as 0.4 µg/mL (≈ 1.59 µM); in the assay with Entamoeba histolytica, 25 µg/mL (≈ 99.1 µM). For the molecule `Cc1nc(N)ncc1-c1ncc([N+](=O)[O-])n1C` [4-Methyl-5-(1-methyl-5-nitro-2-imidazolyl)-pyrimidine-2-amine], the MIC in the assay with Trichomonas vaginalis [1] (setting [3]) came to 0.1 µg/mL (≈ 0.427 µM). On to `Cc1c(-c2ncc([N+](=O)[O-])n2C)cnn1-c1ccc([N+](=O)[O-])cc1` [5-Methyl-4-(1-methyl-5-nitro-2-imidazolyl)-1-(4-nitrophenyl)-pyrazole], for which, in the assay on Trichomonas vaginalis [1] (setting [3]), the MIC came out at 0.4 µg/mL (≈ 1.22 µM). Take `Cc1c(-c2ncc([N+](=O)[O-])n2C)cnn1-c1ccccc1` [5-Methyl-4-(1-methyl-5-nitro-2-imidazolyl)-1-phenylpyrazole]: the MIC amounted to 0.1 µg/mL (≈ 0.353 µM) in the assay with Trichomonas vaginalis [1] (setting [3]) and 12.5 µg/mL (≈ 44.1 µM) with Entamoeba histolytica.

Consider `Cc1ncc([N+](=O)[O-])n1CCO` [Metronidazole, 5-nitro-2-methyl-1-(2-hydroxyethyl)-imidazole, reference compound], for which the MIC in the assay with Trichomonas vaginalis [1] (setting [4]) was 1.6 µg/mL (≈ 9.35 µM); with Trichomonas vaginalis [1] (setting [3]), 1.6 µg/mL (≈ 9.35 µM); in the assay on Entamoeba histolytica, above 100 µg/mL. Further, the “effective against Trichomonas vaginalis” value in the assay on Trichomonas vaginalis [2] is given as “effective”. For “Mixture of 1,3-Dimethyl-4-(1-methyl-5-nitro-2-imidazolyl)-pyrazole and 1,5-Dimethyl-4-(1-methyl-5-nitro-2-imidazolyl)-pyrazole”, the “Minimum Inhibitory Concentration (MIC) in μg./ml. Against Trich vag.” value with Trichomonas vaginalis [1] (Table II) came out at 0.1 µg/mL. Moreover, in the assay on Entamoeba histolytica, the “Minimum Inhibitory Concentration (MIC) in μg./ml. Against Entamoeba hist.” value was determined as 12.5 µg/mL. The corresponding values for “Mixture of 5-Methyl-4-(1-methyl-5-nitro-2-imidazolyl)-isoxazole and 3-Methyl-4-(1-methyl-5-nitro-2-imidazolyl)-isoxazole” are 0.2 µg/mL and 50 µg/mL.
